Assay results published in ChEMBL document CHEMBL4020780, “Evaluation of synthesized coumarin derivatives on aromatase inhibitory activity” (Bioorg Med Chem Lett, 2017).

Tests used:
CYP19 (aromatase) [1] = molecular target: T1, CYP19 (aromatase) (Homo sapiens, UniProt P11511); experiment: Inhibition of human CYP19 assessed as residual activity at 10 uM using [1beta-3H]-androstenedione as substrate after 15 mins in presence of NADPH by liquid scintillation counter method relative to control; conditions: probe [1beta-3H]-androstenedione, read-out: Activity
T1 sequence (P11511 whole entry): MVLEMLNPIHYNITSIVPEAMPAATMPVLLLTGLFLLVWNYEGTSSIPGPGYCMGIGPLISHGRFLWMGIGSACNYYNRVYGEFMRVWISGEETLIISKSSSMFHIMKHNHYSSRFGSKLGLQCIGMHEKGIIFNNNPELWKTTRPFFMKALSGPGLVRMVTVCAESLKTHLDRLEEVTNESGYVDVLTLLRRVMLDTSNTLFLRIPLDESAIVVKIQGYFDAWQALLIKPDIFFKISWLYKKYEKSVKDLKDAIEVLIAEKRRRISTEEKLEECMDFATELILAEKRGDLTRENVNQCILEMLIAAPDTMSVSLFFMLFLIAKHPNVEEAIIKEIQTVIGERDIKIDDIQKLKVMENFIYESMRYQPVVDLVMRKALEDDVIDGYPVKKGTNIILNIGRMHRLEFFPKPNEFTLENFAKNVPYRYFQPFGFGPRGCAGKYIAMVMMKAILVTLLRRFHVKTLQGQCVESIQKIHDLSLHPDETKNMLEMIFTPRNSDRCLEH

Aromatase = molecular target: T2, Aromatase (Homo sapiens, UniProt P11511);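 also: tritiated androstenedione turnover by human CYP19 with NADPH over 15 min, measured through liquid scintillation counting, value is the concentration halving enzyme activity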
T2 sequence (P11511 whole entry): T1 sequence (P11511 whole entry)

CYP19 (aromatase) [2] = molecular target: T1, CYP19 (aromatase); experiment: Inhibition of human CYP19 assessed as residual activity at 0.1 uM using [1beta-3H]-androstenedione as substrate after 15 mins in presence of NADPH by liquid scintillation counter method relative to control; conditions: probe [1beta-3H]-androstenedione, read-out: Activity

Structure (SMILES)	activity at 0.25 h, 10 µM (CYP19 (aromatase) [1])	IC50 (Aromatase)	activity at 0.25 h, 0.1 µM (CYP19 (aromatase) [2])
CCN(CC)c1ccc2ccc(=O)oc2c1	86%	> 10 µM	
O=c1ccc2ccc(-c3ccccc3)cc2o1		> 10 µM	
CCOC(=O)c1oc(-c2cc3ccc(N(CC)CC)cc3oc2=O)nc1C	22 to 104%	> 10 µM	
CCOC(=O)c1csc(-c2cc3ccc(N(CC)CC)cc3oc2=O)n1	22%	1.1 µM	
O=c1ccc2ccc(-c3ccncc3)cc2o1	14%	2.6 µM	92%
CCN(CC)c1ccc2cc(-c3cnco3)c(=O)oc2c1	22 to 104%	3.1 µM	
CCN(CC)c1ccc2cc(-c3nc(CC(=O)OC)cs3)c(=O)oc2c1	55%	> 10 µM	
O=c1ccc2ccc(-c3cccnc3)cc2o1	0%	0.0303 µM	25%
O=c1ccc2ccc(-c3ccccn3)cc2o1	96%	> 10 µM	
CCN(CC)c1ccc2cc(-c3nc(C)cs3)c(=O)oc2c1	15%	1.1 µM	
CCN(CC)c1ccc2cc(-c3ncco3)c(=O)oc2c1	22 to 104%	> 10 µM	

Continued, values first:

activity at 0.25 h, 10 µM (CYP19 (aromatase) [1])	IC50 (Aromatase)	activity at 0.25 h, 0.1 µM (CYP19 (aromatase) [2])	Structure (SMILES)
	> 10 µM		COc1ccc(-c2ccc3ccc(=O)oc3c2)cc1
65%	> 10 µM		CCN(CC)c1ccc2cc(-c3nc(-c4ccccc4)cs3)c(=O)oc2c1
0%	0.0287 µM	30%	CCN(CC)c1ccc2cc(-c3cc4ccc(N(CC)CC)cc4oc3=O)c(=O)oc2c1
77%	> 10 µM		COc1ccc2cc(-c3cc4ccc(OC)cc4oc3=O)c(=O)oc2c1
22 to 104%	> 10 µM		CCN(CC)c1ccc2cc(-c3coc(-c4ccccc4)n3)c(=O)oc2c1
96%	> 10 µM		COc1ccc2ccc(=O)oc2c1 [HERNIARIN]
